Patent EP0405506A1, “Tetrapeptide type-B CCK receptor ligands” (ABBOTT LABORATORIES, priority 1989, dated 1991)

How the values were obtained:
cortical CCK receptor = molecular target: T1, cortical CCK receptor (Cavia porcellus, UniProt H0VZC5); experiment: Radioligand binding ([125I]Bolton-Hunter CCK8) in guinea pig cerebral cortical membranes; settings: displacement of [125I]BH-CCK8, cortical membranes, 30°C for 150 min, Hill analysis; read-out: IC₅₀ (nM) cortex
T1 construct: Cortical and pancreatic membranes were prepared as described; from tissue; host or cells: guinea pig cerebral cortex membranes
T1 sequence (H0VZC5 1-426): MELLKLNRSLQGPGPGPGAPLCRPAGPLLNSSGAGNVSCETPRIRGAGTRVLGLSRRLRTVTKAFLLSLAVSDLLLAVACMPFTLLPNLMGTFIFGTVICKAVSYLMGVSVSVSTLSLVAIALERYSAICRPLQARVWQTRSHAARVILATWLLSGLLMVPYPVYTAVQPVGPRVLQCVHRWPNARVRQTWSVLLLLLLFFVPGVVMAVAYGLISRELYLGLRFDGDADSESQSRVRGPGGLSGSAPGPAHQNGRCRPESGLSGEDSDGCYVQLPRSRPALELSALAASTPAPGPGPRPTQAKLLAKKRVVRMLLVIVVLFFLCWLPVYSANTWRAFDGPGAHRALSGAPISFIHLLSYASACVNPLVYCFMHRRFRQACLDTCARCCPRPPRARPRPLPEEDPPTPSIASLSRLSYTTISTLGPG
Description: Protocol for Radioligand Binding Experiments in Guinea Pig Cerebral Cortical and Pancreatic Membrance Preparations
CCK8 (Asp-Tyr(SO₃H)-Met-Gly-Trp-Met-Asp-Phe-NH₂), bestatin and phosphormaidon were purchased from Peptide International (Louisville, KY). EGTA, HEPES, BSA were purchased from Sigma Chemical Co. (St. Louis, MO). [¹²⁵I]-Bolton-Hunter CCK8 (BH-CCK8) (specific activity, 2200 Ci, mmol) was obtained from New England Nuclear (Boston, MA). Male ginea pigs, 250 to 325 g, were obtained from Scientific Small Animal Laboratory and Farm (Arlington Heights, IL). Collangenase, code CLSPA was purchased from Worthington (Frehold, NJ).
Cortical and pancreatic membranes were prepared as described (Lin and Miller; J. Pharmacol. Exp. Ther. 232, 775-780, 1985). In brief, pancreas and cortex were removed and rinsed with ice-cold saline. Visible fat and connective tissues were removed from the pancreas. Tissues were weighed and homogenized in approximately 25 mL of ice-cold 50 mM Tris-HCl buffer, pH 7.4 at 4°C with a Brinkman Polytron for 30 sec, setting 7. The homogenates were centrifuged for 10 min at 1075 x g and the pellet was discarded. The supernantants were saved and centrifuged at 38,730 x g for 20 min. The resultant pellets were rehomogenized in 25 mL of 50 mM Tris-HCl buffer with a Teflon-glass homogenizer, 5 up and down strokes. The homogenates were centrifuged again at 38,730 x g for 20 min. The pellets were then resuspended in 20 mM HEPES, containing 1 mM EGTA, 118 mM NaCl, 4.7 mM KCl, 5mM MgCl₂, 100 uM bestatin, 3 uM phosphoramidon, pH 7.4 at 22°C with a Teflon-glass homogenizer, 15 up and down strokes. The resuspension volume used for the cortex was 15 mL per g of original wet weight and 60 mL per g for pancreas.
[¹²⁵I]Bolton-Hunter CCK8 and test compounds were diluted with HEPES-EGTA-salt buffer (see above) containing 0.5% bovine serum albumin (BSA). To 1 mL Skatron polystyrene tubes were added 25 uL of test compounds, 25 uL of [¹²⁵I]BH-CCK8 and 200 uL of membrane suspension. The final BSA concentration was 0.1%. The cortical tissues were incubated at 30°C for 150 min. and pancreatic tissues were incubated at 37°C for 150 min. Incubations were terminated by filtration using Skatron Cell Harvester and SS32 microfiber filter mats. The specific binding of [¹²⁵I]BH-CCK8, defined as the difference betwen binding in the absence and presence of 1 uM CCK8, was 85-90% of total binding in cortex and 90-95% in pancreas. IC₅₀s were determined from the Hill analysis.

[1] = molecular target: T2, CCK-B receptors on small cell lung cancer cell lines (Homo sapiens, UniProt P32239); experiment: Measurement of [Ca++]i changes in NCI-H345 and H209 cell lines (indo-1 fluorescence); type: cell-based; settings: read-out: Intrinsic Activity Relative to CCK-8
T2 construct: endogenous in cells; host or cells: NCI-H345 and H209 small cell lung cancer cells
T2 sequence (P32239 1-447): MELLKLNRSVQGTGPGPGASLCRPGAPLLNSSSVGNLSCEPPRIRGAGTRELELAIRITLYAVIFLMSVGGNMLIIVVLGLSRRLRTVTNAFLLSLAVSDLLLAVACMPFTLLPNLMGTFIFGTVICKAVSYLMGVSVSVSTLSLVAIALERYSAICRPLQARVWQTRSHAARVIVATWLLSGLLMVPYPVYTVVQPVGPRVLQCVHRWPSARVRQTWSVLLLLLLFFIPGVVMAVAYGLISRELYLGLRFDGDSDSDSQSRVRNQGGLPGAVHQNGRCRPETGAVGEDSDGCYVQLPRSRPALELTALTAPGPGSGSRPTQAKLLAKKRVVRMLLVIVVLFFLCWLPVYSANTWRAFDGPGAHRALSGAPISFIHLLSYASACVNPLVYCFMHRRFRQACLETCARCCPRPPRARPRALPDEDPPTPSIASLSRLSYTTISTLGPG
Description: Protocol for Measuring [Ca++]i Changes in NCI-H345 and H209 Cell Lines
Culture conditions were as described (D.G. Yoder, T.W. Moody, Peptides, 8, 103 (1987), except that the medium was modified to RPMI 1640 with 2.5% fetal bovine serum (heat inactivated), 5µg/l sodium selenite, 5 mg/l human transferrin, 5 mg/l insulin, penicillin (100 U/l) and streptomycin (100 µg/l). To measure intracellular Ca²⁺, cells were loaded with 1 µM of indo-1,AM, for 60 min at 37°C. The cells were centrifuged at 750 x g for 5 min and resuspended in 40 mL Buffer F (Dulbecco's phosphate buffered saline containing 0.1% glucose, pH 7.4). The cells were counted then twice washed by centrifugation. The final pellet was resuspended (approximately 1 x 10⁶ cells/mL) in Buffer F. The cells were thermally equilibrated in a thermostated cuvette (37°C) for 2 min prior to base-line fluorescence measurement. Fluorescence measurements were made with an SLM 8000C spectrofluorimeter equipped with magnetic microstirrer and polarizing filters. Measurements with indo-1-loaded cells were obtained at excitation wavelength of 350 nm and emission wavelength of 480 and 405 nM and the time interval for the measurements was 0.5 sec.

CCC[C@H]1CCN(C(=O)[C@@H]2Cc3c[nH]c4cccc(c34)CC(=O)N2)[C@@H]1C(=O)N[C@@H](CC(=O)O)C(=O)N[C@@H](Cc1ccccc1)C(N)=O [Example 48, Ctp-Tpp-Asp-Phe-NH₂]
IC50 (cortical CCK receptor): 0.7 nM | Emax [1]: 103%
